How the values were obtained:
Assay type in all cases: biochemical
[1] = target: T1, phosphorylated VEGF-R2Δ50 (FLVK-P) (Homo sapiens, UniProt P35968, DEL940-989/E990V); experiment: VEGF-R2 coupled spectrophotometric (FLVK-P) assay; conditions: combinatorial library compounds; for inhibition at 20 µM: read-out: VEGF % inhibition at 20 μM, 20 μM
T1 construct: VEGF-R2Δ50 contains residues 806-939 and 990-1171; made in house; host or cells: baculovirus/insect cells
Summary of the method: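 Baculovirus-expressed human VEGF-R2Δ50 (residues 806-939/990-1171, E990V) was autophosphorylated with 3 mM ATP, 40 mM MgCl2 for 2 h at 4° C. ADP formation was coupled via PK/LDH to NADH oxidation, read at 340 nm, with 5.1 mM poly(E4Y1), 1 mM ATP, 25 mM MgCl2, Hepes pH 7.5. Ki came from activity across compound concentrations.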

[2] = target: T2, FL-CHK1 (Homo sapiens, UniProt O14757); experiment: CHK1 assay; conditions: 20 μM; combinatorial library compounds
T2 construct: C-terminally His-tagged full-length human CHK1 (FL-CHK1); 6xHis (C); made in house; host or cells: baculovirus/insect cells
T2 sequence (O14757 1-476): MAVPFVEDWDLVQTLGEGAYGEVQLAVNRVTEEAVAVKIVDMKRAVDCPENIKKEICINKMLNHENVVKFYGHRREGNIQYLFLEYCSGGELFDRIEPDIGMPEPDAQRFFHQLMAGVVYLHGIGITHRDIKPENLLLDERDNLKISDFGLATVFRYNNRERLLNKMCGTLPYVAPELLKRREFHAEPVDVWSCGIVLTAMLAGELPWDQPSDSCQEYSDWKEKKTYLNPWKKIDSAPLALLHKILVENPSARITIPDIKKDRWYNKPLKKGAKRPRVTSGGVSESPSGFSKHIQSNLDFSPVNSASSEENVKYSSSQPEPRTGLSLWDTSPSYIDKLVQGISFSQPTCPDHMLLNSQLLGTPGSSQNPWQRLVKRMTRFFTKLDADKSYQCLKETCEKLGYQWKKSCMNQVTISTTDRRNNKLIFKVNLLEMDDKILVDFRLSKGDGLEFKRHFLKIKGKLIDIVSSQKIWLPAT
Summary of the method: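 Full-length human CHK1 with C-terminal 6×His tag, made in baculovirus/insect cells, 10 nM, phosphorylating 0.125 mM Syntide-2 with 0.15 mM ATP in 50 mM Tris pH 7.5, 25 mM MgCl2, 400 mM NaCl. PK/LDH-coupled NADH oxidation read at 340 nm. Ki from initial rates over varied compound concentrations.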

[3] = target: CDK2/Cyclin A complex (Homo sapiens, UniProt P24941); experiment: CDK2/Cyclin A assay; conditions: 1.0 μM; combinatorial library compounds
Summary of the method: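 Radiometric assay: 150 nM CDK2/cyclin A (insect-cell CDK2, truncated cyclin A) phosphorylates His-tagged Rb fragment (residues 386-928) with 25 μM ATP plus [32P]ATP, pH 7.4 HEPES, 2% DMSO, 30 °C for 20 min. Filter-captured product counted by phosphorimager; apparent Ki from competitive or tight-binding inhibition fits.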

[4] = target: T3, CDK4/Cyclin D3 complex (Homo sapiens, UniProt P11802); experiment: CDK4/Cyclin D assay; conditions: 1.0 μM; combinatorial library compounds
T3 construct: made in house; host or cells: insect cells co-infected with baculovirus vectors
T3 sequence (P11802 whole entry): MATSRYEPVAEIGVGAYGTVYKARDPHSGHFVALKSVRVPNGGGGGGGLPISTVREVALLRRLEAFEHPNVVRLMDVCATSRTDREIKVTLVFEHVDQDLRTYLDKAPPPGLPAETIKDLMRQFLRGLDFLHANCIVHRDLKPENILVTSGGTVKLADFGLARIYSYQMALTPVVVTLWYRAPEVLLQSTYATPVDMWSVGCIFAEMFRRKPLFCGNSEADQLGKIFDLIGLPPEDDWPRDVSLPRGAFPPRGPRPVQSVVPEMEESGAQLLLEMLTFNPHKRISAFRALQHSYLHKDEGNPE
T3 sequence (P30281 whole entry partner): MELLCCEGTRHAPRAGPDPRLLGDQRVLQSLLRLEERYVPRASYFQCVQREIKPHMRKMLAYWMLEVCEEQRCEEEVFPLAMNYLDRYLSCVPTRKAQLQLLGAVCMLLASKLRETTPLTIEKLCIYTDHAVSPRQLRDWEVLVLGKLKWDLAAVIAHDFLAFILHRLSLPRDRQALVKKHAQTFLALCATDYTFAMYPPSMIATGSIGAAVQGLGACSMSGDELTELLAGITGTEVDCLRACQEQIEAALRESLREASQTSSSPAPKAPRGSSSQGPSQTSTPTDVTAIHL
Summary of the method: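 Insect-cell-expressed CDK4/cyclin D3 (50 nM) phosphorylating His-tagged Rb fragment (residues 386-928) with 25 μM [^32P]ATP in HEPES pH 7.4, MgCl2, 2% DMSO; 20 min at 30 °C, EDTA stop. Filter-captured 32P by phosphorimager; apparent Ki from competitive or tight-binding inhibition fits.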

T1 sequence (P35968 with tags, fused parts or gaps DEL940-989/E990V limits assumed): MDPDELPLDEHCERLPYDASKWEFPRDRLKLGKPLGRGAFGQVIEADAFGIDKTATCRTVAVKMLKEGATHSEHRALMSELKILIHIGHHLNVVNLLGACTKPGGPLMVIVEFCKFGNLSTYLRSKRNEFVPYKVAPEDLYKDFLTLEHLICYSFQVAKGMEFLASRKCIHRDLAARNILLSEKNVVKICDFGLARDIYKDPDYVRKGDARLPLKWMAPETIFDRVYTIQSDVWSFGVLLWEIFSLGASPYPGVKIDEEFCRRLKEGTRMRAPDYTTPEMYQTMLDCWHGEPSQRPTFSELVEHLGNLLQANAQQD

Structure (SMILES)	inhibition at 20 µM [1]	inhibition at 20 µM [2]	inhibition at 1 µM [3]	inhibition at 1 µM [4]	VEGF % inhibition at 20 μM [1]	CHK1 % Inhibition at 20 μM [2]	CDK2 % Inhibition at 1.0 μM [3]	CDK4 % Inhibition at 1.0 μM [4]
Nc1nc(Nc2ccc(S(N)(=O)=O)cc2)sc1-c1nc(-c2ccc3c(c2)CCC(=O)N3)cs1	7%	15.3%	56.6%	42.2%				
Nc1nc(Nc2ccc(S(N)(=O)=O)cc2)sc1-c1nc(-c2ccccc2)cs1 [drawing 435]					34%	12.3%	60.8%	43.3%
CN(C)c1ccc(Nc2nc(N)c(-c3nc(-c4cccc([N+](=O)[O-])c4)cs3)s2)cc1	6%	13.8%	17.1%	27%				
CC(C)c1ccc(Nc2nc(N)c(-c3nc(-c4ccc5c(c4)CCC(=O)N5)cs3)s2)cc1	21%	20.9%	29.1%	59.5%				
CN(C)c1ccc(Nc2nc(N)c(-c3nc(-c4ccc(C(F)(F)F)cc4)cs3)s2)cc1	5%	13.1%	33.4%	60.3%				
CC(C)c1ccc(Nc2nc(N)c(-c3nc(-c4ccccc4OC(=O)c4ccccc4)cs3)s2)cc1	7%	-4.2%	4.8%	56.1%				
CN(C)c1ccc(Nc2nc(N)c(-c3nc(-c4cc(C(C)(C)C)c(O)c(C(C)(C)C)c4)cs3)s2)cc1	6%	37.1%	18.3%	73.2%				
CN(C)c1ccc(Nc2nc(N)c(-c3nc(-c4cc(-c5ccc(Cl)c(Cl)c5)no4)cs3)s2)cc1	1%	-2.8%	12.6%	-17.5%				
Cc1c(F)cc(-c2csc(-c3sc(Nc4ccc(S(N)(=O)=O)cc4)nc3N)n2)cc1Cl [drawing 440]	5%	21.1%	68%	75%				
CC(C)c1ccc(Nc2nc(N)c(-c3nc(-c4ccc5oc6ccccc6c5c4)cs3)s2)cc1	39%	18.9%	-4.3%	75.5%				
COc1ccc(OC)c(-c2csc(-c3sc(Nc4ccc(C(C)C)cc4)nc3N)n2)c1	12%	-5.2%	12.2%	79.4%				
CN(C)c1ccc(Nc2nc(N)c(-c3nc(-c4ccc[nH]4)cs3)s2)cc1	28%	32.5%	31.7%	63.6%				
CC(C)c1ccc(Nc2nc(N)c(-c3nc(-c4cc(C(C)(C)C)c(O)c(C(C)(C)C)c4)cs3)s2)cc1	-6%	7.9%	20.9%	46.8%				
Nc1nc(Nc2ccc(S(N)(=O)=O)cc2)sc1-c1nc(-c2ccc(Cl)c([N+](=O)[O-])c2)cs1	-2%	13.1%	17.6%	-28.2%				
Cc1c(-c2csc(-c3sc(Nc4ccc(S(N)(=O)=O)cc4)nc3N)n2)sc2ccc(Cl)cc12 [drawing 424]	23%		67%	59.9%		28.4%		

Now from value to molecule:

inhibition at 20 µM [1]	inhibition at 20 µM [2]	inhibition at 1 µM [3]	inhibition at 1 µM [4]	VEGF % inhibition at 20 μM [1]	CHK1 % Inhibition at 20 μM [2]	CDK2 % Inhibition at 1.0 μM [3]	CDK4 % Inhibition at 1.0 μM [4]	Structure (SMILES)
-2%	0.8%	14.2%	55.9%					Cc1ccc(-c2csc(-c3sc(Nc4ccc(C(C)C)cc4)nc3N)n2)cc1
26%	3.2%	23.3%	12.1%					Cc1c(-c2csc(-c3sc(Nc4ccc(N(C)C)cc4)nc3N)n2)sc2ccccc12
5%	-7.6%	17.7%	35.6%					CN(C)c1ccc(Nc2nc(N)c(-c3nc(-c4ccc(-c5ccc(Cl)cc5Cl)o4)cs3)s2)cc1
11%	19.8%	66.8%	58%					Nc1nc(Nc2ccc(S(N)(=O)=O)cc2)sc1-c1nc(-c2c(Cl)c(Cl)nc(Cl)c2Cl)cs1
0%	14.8%	-6.4%	8.7%					COc1ccccc1-c1csc(-c2sc(Nc3ccc(N(C)C)cc3)nc2N)n1
46%	47.1%	26.6%	66.8%					CN(C)c1ccc(Nc2nc(N)c(-c3nc(-c4ccc(O)cc4)cs3)s2)cc1
13%	14.1%	15.6%	68.7%					COc1ccc(OC)c(-c2csc(-c3sc(Nc4ccc(N(C)C)cc4)nc3N)n2)c1
50%	0.2%	19.6%	-13.5%					Cc1ccc(-c2csc(-c3sc(Nc4ccc(S(N)(=O)=O)cc4)nc3N)n2)c(C)c1
15%	16.4%	17.6%	-0.3%					Nc1nc(Nc2ccc(S(N)(=O)=O)cc2)sc1-c1nc(-c2cccc(Br)c2)cs1
				42%	17.8%	31%	79.9%	Cc1c(-c2csc(-c3sc(Nc4ccc(C(C)C)cc4)nc3N)n2)sc2ccc(Cl)cc12 [drawing 489]
9%	11.4%	52.6%	53.3%					CCOC(=O)c1ccccc1-c1csc(-c2sc(Nc3ccc(S(N)(=O)=O)cc3)nc2N)n1
11%	8.2%	14.3%	36.4%					CN(C)c1ccc(Nc2nc(N)c(-c3nc(-c4ccc(C#N)cc4)cs3)s2)cc1
-2%	1.3%	14.1%	-3.5%					CCc1cc2c(cc1-c1csc(-c3sc(Nc4ccc(S(N)(=O)=O)cc4)nc3N)n1)C(C)(C)CCC2(C)C
5%	8.8%	21.7%	48%					CC(C)c1ccc(Nc2nc(N)c(-c3nc(-c4cccc(OC(=O)c5ccccc5)c4)cs3)s2)cc1
-4%	3.3%	23.2%	14%					Cn1cc(-c2csc(-c3sc(Nc4ccc(S(N)(=O)=O)cc4)nc3N)n2)cc1C(=O)C(Cl)(Cl)Cl
30%	10.8%	17.8%	-28.6%					Nc1nc(Nc2ccc(S(N)(=O)=O)cc2)sc1-c1nc(C2C=C([N+](=O)[O-])C=CC2)cs1 (stereo not drawn)
49%	28.5%	55.9%	57.2%					Nc1nc(Nc2ccc(S(N)(=O)=O)cc2)sc1-c1nc(-c2ccc(O)c(O)c2)cs1
-7%	9%	11.7%	9.1%					Cc1cc(-c2csc(-c3sc(Nc4ccc(C(C)C)cc4)nc3N)n2)ccc1Cl
9%	-5.3%	12.2%	73%					CCN(CC)c1ccc(-c2csc(-c3sc(Nc4ccc(C(C)C)cc4)nc3N)n2)cc1
5%	-0.9%	11.1%	49.8%					Cc1onc(-c2ccccc2)c1-c1csc(-c2sc(Nc3ccc(C(C)C)cc3)nc2N)n1
10%	7.8%	16.3%	-20.3%					COc1cccc(-c2csc(-c3sc(Nc4ccc(N(C)C)cc4)nc3N)n2)c1

From patent US6620828B2, “Thiazole compounds and pharmaceutical compositions for inhibiting protein kinases and methods for their use” (Agouron Pharmaceuticals, Inc., priority 1999, dated 2003)
